From patent EP0326331B1, “Substituted quinolines and cinnolines” (Dow AgroSciences LLC, priority 1988, dated 1989)
Like-named read-outs stand apart in the source and are kept apart here.

Experiments:
Format in all cases: in vivo
[1] = tested on: Pyricularia oryzae (rice blast); assay: whole plant or invertebrate; settings: disease control rating, foliar spray on rice, 400 ppm (+++ at 100 ppm)
[2] = tested on: Botrytis cinerea (gray mold); assay: Test 1 greenhouse foliar spray screen, gray mold on grape berries; settings: disease control rating, spray on grape berries, 400 ppm (+++ at 100 ppm)
[3] = tested on: Cercospora beticola (leaf spot); assay: Test 1 greenhouse foliar spray screen, leaf spot on sugar beet; settings: disease control rating, foliar spray on sugar beet, 400 ppm (+++ at 100 ppm)
[4] = tested on: melon aphids (Aphis gossypii Glover); assay: Mite/insect screen, MA; settings: percent mortality
Summary of the method: (§1)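 Activity is expressed as percent mortality at the indicated spray concentrations. Plants are sprayed to runoff on upper and lower leaf surfaces with aqueous dilutions of an acetone/alcohol emulsifiable formulation, then dried for one hour.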

[5] = tested on: Pseudoperonospora cubensis (downy mildew); assay: Test 1 greenhouse foliar spray screen, downy mildew on squash; settings: for DOWN MDEW: disease control rating, foliar spray on squash, 400 ppm (+++ at 100 ppm); for activity against downy mildew: summary statement in the description
[6] = tested on: Twospotted spider mites (Tetranychus urticae Koch); assay: Mite/insect screen, SM; settings: percent mortality
Summary of the method: as §1

[7] = tested on: Puccinia recondita tritici (leaf rust); assay: Test 1 greenhouse foliar spray screen, leaf rust on wheat; settings: disease control rating, foliar spray on wheat, 400 ppm (+++ at 100 ppm)
[8] = tested on: Erysiphe graminis tritici (powdery mildew); assay: Test 1 greenhouse foliar spray screen, powdery mildew on wheat; settings: disease control rating, foliar spray on wheat, 400 ppm (+++ at 100 ppm)
corn rootworm = assay: Mite/insect screen, CRW; settings: percent mortality
Summary of the method: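 Each compound, taken up in an emulsifier-containing acetone/alcohol mixture and diluted in water to the stated concentrations, was assessed for percent kill following standard exposure times.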

[9] = tested on: Septoria tritici (leaf blotch); assay: Test 1 greenhouse foliar spray screen, leaf blotch on wheat; settings: disease control rating, foliar spray on wheat, 400 ppm (+++ at 100 ppm)
[10] = tested on: southern armyworm (Spodopetra eridania Cramer); assay: Mite/insect screen, SAW; settings: percent mortality
Summary of the method: as §1

[11] = tested on: Venturia inaequalis (apple scab); assay: Test 1 greenhouse foliar spray screen, apple scab on apple seedling; settings: disease control rating, foliar spray on apple seedling, 400 ppm (+++ at 100 ppm)
[12] = Aphis gossypii, SAW, SM & MA RATE 200 PPM, read-out: MA RESULTS %
[13] = Tetranychus urticae, SAW, SM & MA RATE 200 PPM, read-out: SM RESULTS %
[14] = CRW RATE 12.00 PPM, read-out: CRW RESULTS %
[15] = Spodoptera eridania, SAW, SM & MA RATE 200 PPM, read-out: SAW RESULTS %

## Fc1cccc2c(NCCc3nc(-c4ccccc4)cs3)ccnc12 [Example 154, 8-fluoro-N-[2-(4-phenyl-2-thiazolyl)ethyl]-4-quinolinamine]
[1]
  RICE BLAST: + (20-89% control at 400 ppm)
[2]
  GRAY MOLD: - (0-19% control at 400 ppm)
[3]
  LEAF SPOT: + (20-89% control at 400 ppm)
[4]; [12]
  mortality at 200 ppm: 0%
[4]; SAW, SM & MA RATE 200 PPM
  MA RESULTS %: 0%
[5]
  DOWN MDEW: +++ (90-100% control at 100 ppm)
  activity against downy mildew: particularly excellent activity
[6]; [13]
  mortality at 200 ppm: 0%
[6]; SAW, SM & MA RATE 200 PPM
  SM RESULTS %: 0%
[7]
  LEAF RUST: +++ (90-100% control at 100 ppm)
[8]
  POWD MDEW: ++ (90-100% control at 400 ppm)
Corn rootworm; CRW RATE 12.00 PPM
  CRW RESULTS %: 0%
Corn rootworm; [14]
  mortality at 12 ppm: 0%
[9]
  LEAF BLOT: + (20-89% control at 400 ppm)
[10]; [15]
  mortality at 200 ppm: 0%
[10]; SAW, SM & MA RATE 200 PPM
  SAW RESULTS %: 0%
[11]
  APPL SCAB: + (20-89% control at 400 ppm)

## Clc1cccc2c(NCCc3cccc4ccccc34)ccnc12 [Example 155, 8-chloro-N-[2-(1-naphthyl)ethyl]-4-quinolinamine]
[1]
  RICE BLAST: + (20-89% control at 400 ppm)
[2]
  GRAY MOLD: - (0-19% control at 400 ppm)
[3]
  LEAF SPOT: - (0-19% control at 400 ppm)
[4]; [12]
  mortality at 200 ppm: 0%
[5]
  DOWN MDEW: +++ (90-100% control at 100 ppm)
[6]; [13]
  mortality at 200 ppm: 0%
[7]
  LEAF RUST: - (0-19% control at 400 ppm)
[8]
  POWD MDEW: - (0-19% control at 400 ppm)
Corn rootworm; [14]
  mortality at 12 ppm: 0%
[9]
  LEAF BLOT: - (0-19% control at 400 ppm)
[10]; [15]
  mortality at 200 ppm: 0%
[11]
  APPL SCAB: - (0-19% control at 400 ppm)

## Clc1cccc2c(NCCc3ccc4ccccc4c3)ccnc12 [Example 156, 8-chloro-N-[2-(2-naphthyl)ethyl]-4-quinolinamine]
[1]
  RICE BLAST: + (20-89% control at 400 ppm)
[2]
  GRAY MOLD: - (0-19% control at 400 ppm)
[3]
  LEAF SPOT: - (0-19% control at 400 ppm)
[4]; [12]
  mortality at 200 ppm: 0%
[4]; SAW, SM & MA RATE 200 PPM
  MA RESULTS %: 0%
[5]
  DOWN MDEW: +++ (90-100% control at 100 ppm)
[6]; [13]
  mortality at 200 ppm: 0%
[6]; SAW, SM & MA RATE 200 PPM
  SM RESULTS %: 0%
[7]
  LEAF RUST: + (20-89% control at 400 ppm)
[8]
  POWD MDEW: - (0-19% control at 400 ppm)
Corn rootworm; CRW RATE 12.00 PPM
  CRW RESULTS %: 0%
Corn rootworm; [14]
  mortality at 12 ppm: 0%
[9]
  LEAF BLOT: - (0-19% control at 400 ppm)
[10]; [15]
  mortality at 200 ppm: 0%
[10]; SAW, SM & MA RATE 200 PPM
  SAW RESULTS %: 0%
[11]
  APPL SCAB: - (0-19% control at 400 ppm)

## Fc1cccc2c(NCCc3cccc4ccccc34)ccnc12 [Example 158, 8-fluoro-N-[2-(1-naphthyl)ethyl]-4-quinolinamine]
[1]
  RICE BLAST: +++ (90-100% control at 100 ppm)
[2]
  GRAY MOLD: - (0-19% control at 400 ppm)
[3]
  LEAF SPOT: + (20-89% control at 400 ppm)
[4]; [12]
  mortality at 200 ppm: 0%
[5]
  DOWN MDEW: +++ (90-100% control at 100 ppm)
[6]; [13]
  mortality at 200 ppm: 0%
[7]
  LEAF RUST: +++ (90-100% control at 100 ppm)
[8]
  POWD MDEW: + (20-89% control at 400 ppm)
Corn rootworm; [14]
  mortality at 12 ppm: 0%
[9]
  LEAF BLOT: +++ (90-100% control at 100 ppm)
[10]; [15]
  mortality at 200 ppm: 0%
[11]
  APPL SCAB: - (0-19% control at 400 ppm)

## Cc1ccc(CCNc2ccnc3c(F)cccc23)s1 [Example 162, 8-fluoro-N-[2-(5-methyl-2-thienyl)ethyl]-4-quinolinamine]
[1]
  RICE BLAST: + (20-89% control at 400 ppm)
[2]
  GRAY MOLD: - (0-19% control at 400 ppm)
[3]
  LEAF SPOT: - (0-19% control at 400 ppm)
[4]; [12]
  mortality at 200 ppm: 0%
[5]
  DOWN MDEW: +++ (90-100% control at 100 ppm)
[6]; [13]
  mortality at 200 ppm: 0%
[7]
  LEAF RUST: ++ (90-100% control at 400 ppm)
[8]
  POWD MDEW: + (20-89% control at 400 ppm)
Corn rootworm; [14]
  mortality at 12 ppm: 0%
[9]
  LEAF BLOT: - (0-19% control at 400 ppm)
[10]; [15]
  mortality at 200 ppm: 0%
[11]
  APPL SCAB: - (0-19% control at 400 ppm)

## Fc1cccc2c(NCCc3ccc(Cl)s3)ccnc12 [Example 163, N-[2-(5-chloro-2-thienyl)ethyl]-8-fluoro-4-quinolinamine]
[1]
  RICE BLAST: + (20-89% control at 400 ppm)
[2]
  GRAY MOLD: - (0-19% control at 400 ppm)
[3]
  LEAF SPOT: +++ (90-100% control at 100 ppm)
[4]; [12]
  mortality at 200 ppm: 0%
[5]
  DOWN MDEW: ++ (90-100% control at 400 ppm)
[6]; [13]
  mortality at 200 ppm: 0%
[7]
  LEAF RUST: +++ (90-100% control at 100 ppm)
[8]
  POWD MDEW: ++ (90-100% control at 400 ppm)
Corn rootworm; [14]
  mortality at 12 ppm: 0%
[9]
  LEAF BLOT: - (0-19% control at 400 ppm)
[10]; [15]
  mortality at 200 ppm: 0%
[11]
  APPL SCAB: - (0-19% control at 400 ppm)

## Fc1cccc2c(NCCc3c[nH]cn3)ccnc12 [Example 164, 8-fluoro-N-[2-(1H-imidazol-4-yl)ethyl]-4-quinolinamine]
[1]
  RICE BLAST: + (20-89% control at 400 ppm)
[2]
  GRAY MOLD: + (20-89% control at 400 ppm)
[3]
  LEAF SPOT: + (20-89% control at 400 ppm)
[4]; [12]
  mortality at 200 ppm: 0%
[5]
  DOWN MDEW: ++ (90-100% control at 400 ppm)
[6]; [13]
  mortality at 200 ppm: 0%
[7]
  LEAF RUST: + (20-89% control at 400 ppm)
[8]
  POWD MDEW: - (0-19% control at 400 ppm)
Corn rootworm; [14]
  mortality at 12 ppm: 0%
[9]
  LEAF BLOT: - (0-19% control at 400 ppm)
[10]; [15]
  mortality at 200 ppm: 0%
[11]
  APPL SCAB: - (0-19% control at 400 ppm)

## Clc1ccc2c(NCCC3=CCCCC3)ccnc2c1 [Example 165, 7-chloro-N-[2-(1-cyclohexenyl)ethyl]-4-quinolinamine]
[1]
  RICE BLAST: ++ (90-100% control at 400 ppm)
[2]
  GRAY MOLD: - (0-19% control at 400 ppm)
[3]
  LEAF SPOT: +++ (90-100% control at 100 ppm)
[4]; Aphis gossypii, foliar, rate 200 ppm, foliar spray on squash, read-out: MA RESULTS %
  mortality at 200 ppm: 0%
[4]; Aphis gossypii, SAW, SM & MA RATE 400 PPM, read-out: MA RESULTS %
  mortality at 400 ppm: 0%
[5]
  DOWN MDEW: +++ (90-100% control at 100 ppm)
  activity against downy mildew: particularly excellent activity
[6]; Tetranychus urticae, foliar, rate 200 ppm, foliar spray on squash, read-out: SM RESULTS %
  mortality at 200 ppm: 0%
[6]; Tetranychus urticae, SAW, SM & MA RATE 400 PPM, read-out: SM RESULTS %
  mortality at 400 ppm: 0%
[7]
  LEAF RUST: ++ (90-100% control at 400 ppm)
[8]
  POWD MDEW: + (20-89% control at 400 ppm)
Corn rootworm; CRW RATE 24.00 PPM, read-out: CRW RESULTS %
  mortality at 24 ppm: 0%
Corn rootworm; CRW rate 12.00 ppm, read-out: CRW RESULTS %
  mortality at 12 ppm: 0%
[9]
  LEAF BLOT: - (0-19% control at 400 ppm)
[10]; Spodoptera eridania, foliar, rate 200 ppm, foliar spray on squash, read-out: SAW RESULTS %
  mortality at 200 ppm: 0%
[10]; Spodoptera eridania, SAW, SM & MA RATE 400 PPM, read-out: SAW RESULTS %
  mortality at 400 ppm: 0%
[11]
  APPL SCAB: + (20-89% control at 400 ppm)
